What all share (test): Phosphatase assay with ENDY(P)INASL as substrate
What all share (type): biochemical

Assay [1] concerns the target T1, CD45 (Homo sapiens, UniProt P08575).
T1 construct: CD45 were purified from placenta and spleen, respectively; from tissue; host or cells: spleen
T1 sequence (P08575 26-1306): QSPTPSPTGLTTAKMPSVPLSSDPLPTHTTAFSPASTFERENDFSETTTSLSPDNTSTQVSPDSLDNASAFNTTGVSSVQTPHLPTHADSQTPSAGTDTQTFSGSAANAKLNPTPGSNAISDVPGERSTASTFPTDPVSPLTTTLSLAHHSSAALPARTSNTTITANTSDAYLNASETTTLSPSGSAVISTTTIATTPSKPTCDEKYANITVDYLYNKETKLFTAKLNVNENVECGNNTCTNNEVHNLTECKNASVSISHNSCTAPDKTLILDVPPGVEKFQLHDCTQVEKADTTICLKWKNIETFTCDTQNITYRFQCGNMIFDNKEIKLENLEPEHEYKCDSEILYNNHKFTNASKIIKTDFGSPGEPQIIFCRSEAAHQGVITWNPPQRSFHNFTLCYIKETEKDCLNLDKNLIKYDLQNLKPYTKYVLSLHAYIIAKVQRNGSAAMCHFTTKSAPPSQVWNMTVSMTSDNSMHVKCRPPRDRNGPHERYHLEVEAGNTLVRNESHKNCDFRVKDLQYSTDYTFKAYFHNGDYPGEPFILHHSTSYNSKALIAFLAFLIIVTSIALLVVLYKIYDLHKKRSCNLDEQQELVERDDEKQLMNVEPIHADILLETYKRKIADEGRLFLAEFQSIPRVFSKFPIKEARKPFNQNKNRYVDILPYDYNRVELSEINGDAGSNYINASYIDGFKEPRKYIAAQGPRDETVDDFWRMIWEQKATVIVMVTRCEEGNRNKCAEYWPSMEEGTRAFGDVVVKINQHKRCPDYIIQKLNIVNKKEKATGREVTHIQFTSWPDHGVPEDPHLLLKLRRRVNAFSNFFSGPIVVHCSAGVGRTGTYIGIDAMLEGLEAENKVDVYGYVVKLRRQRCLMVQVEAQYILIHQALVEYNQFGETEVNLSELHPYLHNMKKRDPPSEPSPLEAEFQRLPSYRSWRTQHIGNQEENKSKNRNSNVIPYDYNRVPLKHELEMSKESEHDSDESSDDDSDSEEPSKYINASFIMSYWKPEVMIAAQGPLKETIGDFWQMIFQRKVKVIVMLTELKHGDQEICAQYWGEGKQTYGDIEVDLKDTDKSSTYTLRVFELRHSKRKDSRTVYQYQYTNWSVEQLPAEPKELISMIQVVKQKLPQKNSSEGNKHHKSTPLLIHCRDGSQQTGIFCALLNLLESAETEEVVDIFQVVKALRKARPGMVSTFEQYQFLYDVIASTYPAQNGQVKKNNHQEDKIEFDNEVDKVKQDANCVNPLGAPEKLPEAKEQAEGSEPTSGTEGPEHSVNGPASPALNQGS
As to the method:
(§1) The tyrosine phosphatases TC.PTP, TCΔC11.PTP, and RPTPα were purified from infected Sf9 cells as described recently (Zander et al., Biochemistry 30: 6964-6970, 1991; Daum et al., J. Biol. Chem. 266: 12211-12215, 1991). The 37 kDa form of PTP1B and CD45 were purified from placenta and spleen, respectively (according to Tonks et al., J. Biol. Chem. 263: 6722-6730, 1988; Tonks et al., Biochemistry 27: 8695-8701, 1988).
(§2) Phosphatase assays with ENDY(P)INASL were performed in buffer M6. Aliquots of 30 μl or 60 μl containing the phosphopeptide, the phosphatase (-beads) and effectors were incubated for 10 minutes at 30° C. The reaction was stopped by adding 200 μl of a suspension of 10% activated, acid-washed Norit A charcoal (v/v) in 0.9N HCl, 0.1M pyrophosphate and 2 mM NaH2 PO4 (according to Streuli et al., Proc. Natl. Acad. Sci. USA 86: 8698-8702, 1989). The mixture was cleared by 10-minute centrifugation and the radioactivity of 150 μl of the supernate was determined. Assays with MBP and RCML were performed as described in Tonks et al., J. Biol. Chem. 263: 6722-6730, 1988. Protein concentration was determined with BSA as standard (Bradford, Anal. Biochem. 72: 248-254, 1976).

For assay [2], the target named is T2, PTP1B (Homo sapiens, UniProt P18031).
T2 construct: The 37 kDa form of PTP1B; from tissue; host or cells: placenta
T2 sequence (P18031 1-321 limits assumed): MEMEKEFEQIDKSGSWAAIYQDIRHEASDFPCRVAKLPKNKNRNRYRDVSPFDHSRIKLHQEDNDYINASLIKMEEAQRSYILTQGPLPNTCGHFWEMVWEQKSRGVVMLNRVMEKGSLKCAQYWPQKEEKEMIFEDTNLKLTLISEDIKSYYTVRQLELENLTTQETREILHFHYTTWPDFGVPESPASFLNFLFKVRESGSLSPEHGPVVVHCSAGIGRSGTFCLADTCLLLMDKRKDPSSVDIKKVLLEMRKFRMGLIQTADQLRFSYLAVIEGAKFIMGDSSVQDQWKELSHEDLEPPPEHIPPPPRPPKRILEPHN
As to the method:
as §1, §2

Assay [3] deals with T3, RPTPα (Homo sapiens, UniProt P18433).
T3 construct: made in house; host or cells: Sf9 cells (baculovirus)
The procedure:
as §1, §2

Assay [4] addresses T4, TC.PTP (Homo sapiens, UniProt P17706).
T4 construct: made in house; host or cells: Sf9 cells (baculovirus)
T4 sequence (P17706 1-415): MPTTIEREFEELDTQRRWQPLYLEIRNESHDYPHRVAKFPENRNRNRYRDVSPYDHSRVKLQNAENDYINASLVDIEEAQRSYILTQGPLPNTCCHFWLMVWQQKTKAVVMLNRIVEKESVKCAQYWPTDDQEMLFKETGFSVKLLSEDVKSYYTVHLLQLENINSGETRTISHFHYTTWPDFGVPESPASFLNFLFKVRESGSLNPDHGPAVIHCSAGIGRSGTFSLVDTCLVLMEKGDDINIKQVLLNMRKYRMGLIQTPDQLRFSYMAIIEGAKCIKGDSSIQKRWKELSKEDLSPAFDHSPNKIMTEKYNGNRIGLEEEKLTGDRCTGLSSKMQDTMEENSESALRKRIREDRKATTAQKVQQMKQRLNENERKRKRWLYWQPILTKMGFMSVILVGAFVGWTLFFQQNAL
Conditions: TC.PTP. As to the method: as §1, §2

Assay [5] concerns the target T5, TCΔC11.PTP (Homo sapiens, UniProt P17706).
T5 construct: both the wild type and truncated forms of the T-cell phosphatase; made in house; host or cells: Sf9 cells (baculovirus)
T5 sequence (P17706 1-317 limits assumed): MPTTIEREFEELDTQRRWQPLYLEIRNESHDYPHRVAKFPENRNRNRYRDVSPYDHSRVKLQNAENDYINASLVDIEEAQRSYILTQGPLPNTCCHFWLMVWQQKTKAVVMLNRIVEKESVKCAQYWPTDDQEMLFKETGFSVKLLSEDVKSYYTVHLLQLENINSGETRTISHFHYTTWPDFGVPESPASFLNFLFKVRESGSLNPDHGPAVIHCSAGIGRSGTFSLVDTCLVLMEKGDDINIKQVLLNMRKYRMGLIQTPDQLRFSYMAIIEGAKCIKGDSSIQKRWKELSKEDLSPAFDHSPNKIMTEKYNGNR
The procedure:
as §1, §2

The mark [6] stands for this setting: 10 min, effector 0.1 mM, read-out: Phosphatase activity in percent of the value obtained in the absence of effectors.
The mark [7] stands for this setting: 10 min, effector 0.5 mM, read-out: Phosphatase activity in percent of the value obtained in the absence of effectors.
The mark [8] stands for this setting: 10 min, effector 1.0 mM, read-out: Phosphatase activity in percent of the value obtained in the absence of effectors.

Where a SMILES comes first, the peptide text is derived from it.

T3 sequence (P18433 20-802): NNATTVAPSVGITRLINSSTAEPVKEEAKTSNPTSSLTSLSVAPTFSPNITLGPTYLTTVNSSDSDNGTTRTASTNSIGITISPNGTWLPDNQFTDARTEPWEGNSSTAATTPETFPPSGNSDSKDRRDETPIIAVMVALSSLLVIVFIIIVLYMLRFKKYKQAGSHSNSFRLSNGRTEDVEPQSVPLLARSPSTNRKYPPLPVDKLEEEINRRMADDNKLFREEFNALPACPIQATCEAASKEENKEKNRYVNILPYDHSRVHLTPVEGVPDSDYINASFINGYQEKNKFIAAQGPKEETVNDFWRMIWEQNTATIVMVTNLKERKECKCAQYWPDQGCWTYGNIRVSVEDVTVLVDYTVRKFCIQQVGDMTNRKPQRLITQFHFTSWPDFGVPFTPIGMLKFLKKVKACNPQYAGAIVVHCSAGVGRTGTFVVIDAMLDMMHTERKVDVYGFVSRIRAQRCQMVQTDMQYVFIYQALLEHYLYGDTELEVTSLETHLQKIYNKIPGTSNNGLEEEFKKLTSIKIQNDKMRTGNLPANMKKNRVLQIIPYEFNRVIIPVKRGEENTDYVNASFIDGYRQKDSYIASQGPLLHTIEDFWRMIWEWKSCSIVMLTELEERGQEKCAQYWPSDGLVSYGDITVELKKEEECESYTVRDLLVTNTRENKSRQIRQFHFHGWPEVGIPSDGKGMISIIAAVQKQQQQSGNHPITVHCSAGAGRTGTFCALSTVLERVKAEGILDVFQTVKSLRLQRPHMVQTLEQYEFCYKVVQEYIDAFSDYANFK

With `[Mn+2]` [Mn^2+], the “Phosphatase activity in percent of the value obtained in the absence of effectors” value (shortened to “Phosphatase activity in percent”) in assay [1] (effector 1.0 mM) was 78%; in assay [1] (effector 3.0 mM), 56%; in assay [1] (effector 5.0 mM), 44%; in assay [2] (effector 1.0 mM), 26%; in assay [2] (effector 3.0 mM), 23%; in assay [2] (effector 5.0 mM), 20%. In addition, the “Phosphatase activity in percent” value was found to be 60% in assay [3] (effector 1.0 mM); 38% in assay [3] (effector 3.0 mM); 21% in assay [3] (effector 5.0 mM); 49% in assay [4] (effector 1.0 mM); 30% in assay [4] (effector 3.0 mM); 21% in assay [4] (effector 5.0 mM). Moreover, the “Phosphatase activity in percent” value in assay [5] (effector 1.0 mM) amounted to 34%; in assay [5] (effector 3.0 mM) it was 22%; in assay [5] (effector 5.0 mM), 15%.

Consider `CC[C@H](C)[C@H](NC(=O)[C@H](Cc1ccc(O)cc1)NC(=O)[C@H](CC(=O)O)NC(=O)[C@H](CC(N)=O)NC(=O)[C@@H](N)CCC(=O)O)C(=O)N[C@@H](CC(N)=O)C(=O)N[C@@H](C)C(=O)N[C@@H](CO)C(=O)N[C@@H](CC(C)C)C(=O)O` (H-ENDYINASL-OH), for which the “Phosphatase activity in percent” value is listed as 99% in assay [1] (effector 60 μM); 92% in assay [1] (effector 110 μM); 83% in assay [1] (effector 210 μM); 94% in assay [2] (effector 60 μM); 84% in assay [2] (effector 110 μM); 58% in assay [2] (effector 210 μM). Moreover, the “Phosphatase activity in percent” value in assay [3] (effector 60 μM) came to 76%; in assay [3] (effector 110 μM), 54%; in assay [3] (effector 210 μM), 30%; in assay [4] (effector 60 μM), 92%; in assay [4] (effector 110 μM) it was 89%; in assay [4] (effector 210 μM), 79%. Moreover, the entries for the “Phosphatase activity in percent” value in assay [5] (effector 60 μM), in assay [5] (effector 110 μM) and in assay [5] (effector 210 μM) were 71%, 55% and 46%, respectively.

As for `[Mg+2]` [Mg^2+], the “Phosphatase activity in percent” value in assay [1] (effector 1.0 mM) stood at 80%; in assay [1] (effector 3.0 mM), 62%; in assay [1] (effector 5.0 mM) it was 72%; in assay [2] (effector 1.0 mM) it was 81%; in assay [2] (effector 3.0 mM), 73%; in assay [2] (effector 5.0 mM), 71%. Further, the “Phosphatase activity in percent” value in assay [3] (effector 1.0 mM) is given as 90%; in assay [3] (effector 3.0 mM), 72%; in assay [3] (effector 5.0 mM), 59%; in assay [4] (effector 1.0 mM), 72%; in assay [4] (effector 3.0 mM), 57%; in assay [4] (effector 5.0 mM), 60%. For the same compound, the “Phosphatase activity in percent” value was found to be 75% in assay [5] (effector 1.0 mM), 60% in assay [5] (effector 3.0 mM) and 58% in assay [5] (effector 5.0 mM).

As to `NCCCNCCCCNCCCN` [spermine], the remaining activity at 100 µM in assay [1] (setting [6]) is 117%; in assay [3] (setting [6]), 89%; in assay [4] (setting [6]) it was 119%; in assay [5] (setting [6]), 81%. Further, the remaining activity at 500 µM is 100% in assay [1] (setting [7]), 57% in assay [3] (setting [7]), 109% in assay [4] (setting [7]) and 60% in assay [5] (setting [7]). Further, the remaining activity at 1000 µM in assay [1] (setting [8]) came out at 85%; in assay [3] (setting [8]), 41%; in assay [4] (setting [8]), 82%; in assay [5] (setting [8]), 55%. In addition, the “Phosphatase activity in percent” value in assay [2] (effector 0.1 mM) is 87%; in assay [2] (effector 0.5 mM), 89%; in assay [2] (effector 1.0 mM), 82%.

Source of the values: patent US5739278A, “Compositions for protein tyrosine phosphatases” (University of Washington, priority 1995, dated 1998).
